Key:
HMC3 microglia = assay: Transwell migration assay of HMC3 microglia with U87 conditioned media; assay type: cell-based; conditions: conditioned media from U87 cells pretreated with BAPN 200 μM; 10 hours
Protocol: (§1) Migration assay. To study the relationship between macrophages and microglia, HMC3 microglia or THP-1 macrophages were seeded into the 24-well plates (receiver wells) using serum-containing culture medium for 24 hours to reach 40-60% confluence and then stimulated with or without U87 cell CM for additional 24 hours. After that, cells were washed with PBS twice and cultured in serum-free culture medium. For upper chambers, THP-1 macrophages (2×10^5) and HMC3 microglia (5×10^4) were suspended in serum-free culture medium and seeded into […] (Corning, #3421) and […] (Corning, #3422) 24-well Transwell inserts, respectively. To study the role of GBM cells on microglia migration, HMC3 microglia (5×10^4) were suspended in serum-free culture medium and seeded into 8.0 μm inserts. SIM-A9 microglia (1×10^5) and THP-1 macrophages (1×10^5) were suspended in serum-free culture medium and seeded into 5.0 μm inserts. The CM from LOX-depleted or inhibited U87 cells, LOX-overexpressed GL261 cells, or SR9009-treated U87 cells were added to the receiver wells, respectively. After 10 hours, migrated cells were fixed with 4% PFA (ThermoFisher, #J61899.AK) for 30 minutes and stained with crystal violet (Sigma-Aldrich, #C-3886) for another 30 minutes. The membrane inserts were washed with water and imaged under an EVOS microscope. The number of transferred cells was counted using ImageJ.

PD-L1 = assay: Immunoblots for PD-L1 in PTEN-deficient GBM cells; assay type: cell-based, human and mouse; conditions: immunoblot; U87, PTEN-KO SF763, CT2A, 005 GSC, GSC23, GSC7-10; 24 hours
Protocol: (§2) Cell Culture. The GBM cell lines U87, U251, SF763, LN229, and CT2A, as well as 293T cells were cultured in Dulbecco's Modified Eagle's Medium (DMEM; Gibco, #11995-065). The mouse glioma cell line GL261 cells and SIM-A9 microglia were cultured in Dulbecco's Modified Eagle Medium-Ham's F12 medium (Gibco, #10565-018). HMC3 microglia were cultured in Eagle's Minimum Essential Medium (ATCC, #30-2003). THP-1 macrophages were cultured in RPMI 1640 medium (Gibco, #11875093). All cell lines were cultured in the indicated medium containing 10% fetal bovine serum (FBS; Fisher Scientific, #16140071) and 1:100 antibiotic-antimycotic (Gibco, #15140-122), and were purchased from the American Type Culture Collection (ATCC). Human GSCs (GSC23 and GSC7-10) and mouse GBM tumor-derived 005 GSCs and QPP7 GSCs were cultured in neural stem cell (NSC) proliferation media (Millipore, #SCM005) containing 20 ng/mL epidermal growth factor (EGF; PeproTech, #AF-100-15) and basic fibroblast growth factor (bFGF; PeproTech, #100-18B). Human GSCs were gifted by Dr. Frederick F. Lang from the Brain Tumor Center (The University of Texas MD Anderson Cancer Center). 005 GSCs and QPP7 GSCs were provided by Dr. Samuel D. Rabkin (Massachusetts General Hospital) and Dr. Jian Hu (The University of Texas MD Anderson Cancer Center), respectively. PTEN CRISPR KO in SF763 and LN229 cells were generated. […]

PATZ1 and PRRX1 = assay: RT-qPCR of transcription factors in PTEN-null GBM cells; assay type: cell-based, human; conditions: U87 and U251 cells; BAPN 200 μM
Protocol: as §2, with “Center).” for “Center). 005 GSCs and QPP7 GSCs were provided by Dr. Samuel D. Rabkin (Massachusetts General Hospital) and Dr. Jian Hu (The University of Texas MD Anderson Cancer Center), respectively. PTEN CRISPR KO in SF763 and LN229 cells were generated.”
Quantitative real-time PCR (RT-qPCR). […] RNA was quantified by NanoDrop spectrophotometers and then the All-In-One 5× RT MasterMix (Applied Biological Materials, #G592) was used to reverse-transcribe RNA into cDNA in T100 Thermal Cycler (Bio-Rad). […]

THP-1 macrophages = assay: Transwell migration assay of THP-1 macrophages with U87 conditioned media; assay type: cell-based; conditions: conditioned media from U87 cells pretreated with SR9009 5 μM
Protocol: as §1

N#CCCN [BAPN, β-aminopropionitrile]
migration of HMC3 microglia (HMC3 microglia): increased the migration ability | expression of PD-L1 (PD-L1): upregulated | mRNA expression of PATZ1 (PATZ1 and PRRX1): upregulated | mRNA expression of PRRX1 (PATZ1 and PRRX1): upregulated

CCOC(=O)N1CCC(CN(Cc2ccc(Cl)cc2)Cc2ccc([N+](=O)[O-])s2)C1 (centres unmarked) [SR9009]
migration ability of THP-1 macrophages (THP-1 macrophages): did not change
